This note sets out measurements from PubChem BioAssay (NCI).

Where “and” joins values, the source holds several entries; their conditions need not be identical. Equal entries are not always repeated.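 Dose response: 5 concentrations. Exposure: 48 h. Format: 96-well plates. Endpoint: linear interpolation; highest concentration if not reached. GI50 marks 50% less growth. TGI is the concentration that stops growth completely.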

The test has as its system MDA-MB-468 breast. In words: NCI anticancer screen, dose series, 48 h.
For `CC(=O)Nc1ccc(S(=O)(=O)N2C(=O)CCC2C(=O)Nc2ccccc2)cc1` (stereo not given), the GI50 is 1760 nM and the TGI turned out to be 19200 nM.

As to `COc1cnc2c(c1)C(=O)c1c-2n(CCCN2CCNCC2)c(=O)c2cc(F)ccc12`, the GI50 is 205 nM and the TGI was found to be 784 nM.

Take `Cc1n[nH]c(C)c1-c1c(C)n[nH]c1C`: the GI50 was 1960 nM and the TGI worked out at 4750 nM.

`FC(F)(F)c1ccc(-c2cnc(-c3nn[nH]n3)nc2NC2CCCCCC2)cc1`: the GI50 was over 10000 nM and the TGI was over 10000 nM.

Turning to `Cc1ccccc1C1N=C2Oc3ccccc3C=C2C(=O)N1` (stereo not given), the GI50 was 524 nM and the TGI is over 100000 nM.

As for `OC1(c2ccccc2)c2ccccc2N(c2ccccc2)c2ccc(Cl)cc21` (stereo not given), the GI50 was 86.4 nM and the TGI was found to be 317 nM.

On to `COc1cc(F)c(F)c(F)c1C(=O)c1cnc(NC2CCN(S(C)(=O)=O)CC2)nc1N`, for which the GI50 was 2300 nM and the TGI is 7270 nM.

Take `CN(C)c1ccc(-c2cc(-c3cccc(NS(C)(=O)=O)c3)nc(N)c2C#N)cc1`: the GI50 is 268 nM and the TGI came out at 1170 nM.

For `CC1(C)CCC(c2ccc(Cl)cc2)=C(CN2CCN(c3ccc(C(=O)NS(=O)(=O)c4ccc(N[C@H](CCN5CCOCC5)CSc5ccccc5)c(S(=O)(=O)C(F)(F)F)c4)cc3)CC2)C1`, the GI50 is 770 nM and the TGI was 2640 nM.

For the compound `Nc1nc(N)c2nc(CNc3ccc(C(=O)NC(CCC(=O)O)C(=O)O)cc3)cnc2n1` (stereo not given), the GI50 was 35.7 nM and < 10 nM; the TGI was over 100000 nM.

Take `CC(C)c1c(C(=O)Nc2ccccc2)c(-c2ccccc2)c(-c2ccc(F)cc2)n1CC[C@@H](O)C[C@@H](O)CC(=O)O`: the GI50 is 9320 nM and the TGI worked out at 68900 nM.

As to `COC(=O)[C@@H](C)C[C@H](Cc1ccccc1)NC(=O)c1nc([C@@H](C[C@H](C(C)C)N(C)C(=O)[C@@H](NC(=O)[C@H]2CC(=O)CCN2C)C(C)C)OC(C)=O)sc1C(C)C`, the GI50 was 25.8 nM and the TGI was determined as 129 nM.

With `COc1cc(-c2nn(-c3cccc(NC(=O)NCCNC(=O)c4ccccc4)c3)cc2-c2ccncc2)ccc1Cl`, the GI50 was 3140 nM and the TGI was over 100000 nM.

With `COc1ncc(-c2ccc3nc(N)n(-c4ccccc4C(F)(F)F)c(=O)c3c2)cc1S(=O)(=O)Nc1ccc(F)cc1F`, the GI50 is 853 nM and the TGI came to 2920 nM.

On to `COc1cc(C(=O)N[C@@H]2CCCN(C)C2)ccc1Nc1ncc2c(n1)N(C1CCCC1)CC(C)(C)C(=O)N2C`, for which the GI50 is 17.7 nM and the TGI came out at 3390 nM.

`CCCN1CCCC(c2ccc(Nc3nc(Nc4cc(F)ccc4C(N)=O)c4cc[nH]c4n3)c(OC)c2)C1` (stereo not given): the GI50 was 3250 nM and the TGI was 6730 nM.

On to `Nc1ncnc2c1ncn2C1SC(CO)C(O)C1O` (stereo not given), for which the GI50 is 19400 nM and the TGI worked out at 58000 nM.

For the compound `C=C1C(=O)O[C@H]2[C@H]1CC/C(COC(=O)NCc1ccc(Cn3c(=O)sn(CCCI)c3=O)cc1)=C\CC[C@@]1(C)O[C@@H]21`, the GI50 is 1540 nM and the TGI came to 3480 nM.

In the case of `CN1CCN(c2ccc(Nc3nc(NCCCNS(=O)(=O)c4cccc(F)c4)c4sccc4n3)cc2)CC1`, the GI50 was 2590 nM and the TGI stood at 10900 nM.

Turning to `O=C1Nc2ccc(I)cc2/C1=C/c1cc(Br)c(O)c(Br)c1`, the GI50 was > 18900 nM and 15900 nM; the TGI is > 25000 nM and 57500 nM.

Regarding `N/C(=N\O)c1cn(C2OC(CO)C(O)C2O)c2ncnc(N)c12` (stereo not given), the GI50 is 126 nM and the TGI stood at 453 nM.

With `Nc1nc(-c2ccccn2)c(-c2ccc3ncccc3n2)s1`, the GI50 was over 25000 nM and the TGI is over 25000 nM.

Regarding `N=C(N)c1ccc(-c2ccc(-c3cccs3)s2)cc1F`, the GI50 was 46.4 nM and the TGI was 256 nM.

In the case of `COc1ccc(-c2cc(-c3ccc(Cl)cc3)c(C#N)c(=O)n2CCCCCC(=O)Nc2ccccc2N)cc1`, the GI50 is 3240 nM and the TGI worked out at 31500 nM.

As for `CN(C)CCCn1c2c(c3ccc(N4CCNCC4)cc3c1=O)C(=O)c1ccccc1-2`, the GI50 was 949 nM and the TGI amounted to 2410 nM.
